Measurements taken from PMC8603350, “A Remote Secondary Binding Pocket Promotes Heteromultivalent Targeting of DC-SIGN” (Journal of the American Chemical Society, 2021).
Like-named read-outs stand apart in the source and are kept apart here. Each block holds one molecule with its values, some of them ahead of it.

How the values were obtained:
[1] = test system: DC-SIGN+ Raji cells; test: Liposome binding assay, flow cytometry; format: cell-based
Method: (§1) If not stated otherwise, all media and supplements for cell culture experiments were purchased from Thermo Fisher Scientific. Raji, THP-1 and U937 cell lines (ATCC) were grown in complete growth medium containing RPMI1640 medium, 10% FCS, 100 U mL-1 Penicillin-Streptomycin and GlutaMax at 37°C and 5% CO2. Cells were monitored with a light microscope (IT40 5PH, VWR) and subcultured every 2 -3 days to maintain cell densities ranging from of 0.5 - 3 x 10^6 cells per mL.
(§2) CLR-expressing cell lines were generated as described before.4,27 Briefly, DC-SIGN, Langerin, murine Langerin and murine Dectin-1 cDNAs (Sinobiologicals) were cloned into a lentiviral BIC-PGK-Zeo-T2a-mAmetrine:EF1A construct by Gibson assembly (NEB) according to the manufacturer’s protocol. HEK293 cells were transfected with the lentiviral vector together with third-generation packaging vectors and viral particles were then used for transduction of Raji cells. In analogy, DC-SIGN and Langerin-expressing THP-1 and U937 cell lines were generated by lentiviral transduction.
(§3) Liposome binding assay – flow cytometry
(§4) Liposome binding to CLR-expressing cells was assayed as previously described.27 Briefly, 0.05 x 10^6 cells were plated in transparent conical-bottom 96 well microtiter plates (Nunc) in a volume of 100 µL medium. Plates were centrifuged at 500 x g for 3 minutes, supernatant was aspirated, and cells were resuspended in 100 µL medium, containing 16 µM liposomes. In control experiments, cells were incubated with medium containing 10 mM EDTA or 50 µg mL-1 mannan for 15 min at 4 °C, prior to liposome application. After 1 h incubation at 4 °C in the dark, cells were centrifuged at 500 x g for 3 min and the supernatant was discarded. Cells wer e resuspended in 200 µL ice-cold medium and analyzed by detecting the co-formulated Alexa 647 dye via flow cytometry with a 654 nm laser and a 670/14 nm filter (Attune Nxt, life technologies).
Flow cytometry data was processed using FlowJo (BD Bioscience). Mean fluorescence intensity (MFI) was further analyzed and plotted using GraphPad Prism (GraphPad […]
To monitor allosteric activation of DC-SIGN by glycomimetic 48, the described protocol was adjusted as follows. DC-SIGN+ Raji cells were plated in transparent conical-bottom 96 well microtiter plates (Nunc) in a volume of 100 µL medium. Plates were centrifuged at 500 x g for 3 minutes, supernatant was aspirated, and cell were resuspended in 25 µL medium supplemented with varying concentrations of monovalent carbohydrates or 0.5 mM 48. Homomultivalent liposomes carrying either natural carbohydrates or 48 were added at a final concentration of 16 µM. Liposome binding was subsequently quantified by measuring Alexa 647 fluorescence in flow cytometry experiments. Statistical significance by means of a student’s t-test was assessed based on averaged normalized MFIs from four biological replicates each conducted as technical duplicates. A p-value < 0.05 was set as significance cut-off.

[2] = target: T1, DC-SIGN ECD (Homo sapiens, UniProt Q9NNX6); test: 19F NMR reporter displacement assay transferred to DC-SIGN ECD; format: binding; conditions: 0.1 mM reporter 49; for 48 estimated, receptor precipitation above 1 mM
T1 construct: DC-SIGN extracellular domain (ECD); made in house; host or cells: E. coli BL21(DE3), pET30b; gene from GenScript
T1 sequence (Q9NNX6 59-404 limits assumed): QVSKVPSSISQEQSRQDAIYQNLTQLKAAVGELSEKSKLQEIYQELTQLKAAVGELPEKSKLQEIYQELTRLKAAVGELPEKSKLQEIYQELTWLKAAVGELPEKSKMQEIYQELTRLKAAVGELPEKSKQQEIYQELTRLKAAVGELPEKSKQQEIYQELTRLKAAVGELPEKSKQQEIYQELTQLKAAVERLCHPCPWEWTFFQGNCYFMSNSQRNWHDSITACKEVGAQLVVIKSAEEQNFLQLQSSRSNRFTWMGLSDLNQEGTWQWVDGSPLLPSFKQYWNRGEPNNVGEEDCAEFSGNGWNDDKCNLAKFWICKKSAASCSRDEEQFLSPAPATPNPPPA
Method: KI values were determined as previously described for Langerin and the DC-SIGN CRD.6 Briefly, competitive binding experiments were conducted with 49 at a concentration of 0.1 mM and varying competitor concentrations [I]T. KI and [P]T values were derived from Equation 8 in a two-parameter fit.
𝜃 = 𝑐𝑜𝑠−1 ( ) ,𝑎 = 𝐾𝐷 + 𝐾𝐼 + [𝐿]𝑇 + [𝐼]𝑇 − [𝑃]𝑇
𝑏 = ([𝐼]𝑇 − [𝑃]𝑇)𝐾𝐷 + ([𝐿]𝑇 − [𝑃]𝑇)𝐾𝐷 + 𝐾𝐼𝐾𝐷, 𝑐 = −𝐾𝐼𝐾𝐷[𝑃]𝑇
For KD determination from 19F NMR CSPs, samples and measurements were set up as described for 19F R2-filtered NMR but at a single relaxation time T = 0 s. CSP 19F, T were calculated from the chemical shift of the 19F resonance of 48 in the presence of protein δT at increasing ligand concentrations and the chemical shift in absence of protein δf at a concentration of 1 mM via Equation 4.
The KD value was calculated from CSP19F, T values in a two -parameter fit using Equation 10, using a fixed protein concentration [P] T and a CSP19F of 0 ppm as a lower bound. CSP19F,b corresponds to the top asymptote and was kept variable. As in Equation 9, pb represents the fraction of bound protein.

[3] = target: T2, Langerin ECD (Homo sapiens, UniProt Q9UJ71); test: 19F NMR reporter displacement assay (RDA), KI determination by titration; format: binding; conditions: for Ki: competitive titration, 0.1 mM reporter ligand 49, 10% DMSO
T2 construct: the trimeric Langerin extracellular domain (ECD) was; made in house; host or cells: E. coli BL21* (DE3)
Method: (§5) via SDS PAGE. The protein solution was aliquoted, snap frozen in liquid N2 and stored at -80°C until further usage.
(§6) NMR binding experiments – Langerin
(§7) General remarks. 19F R2-filtered NMR experiments were conducted on a PremiumCompact 600 MHz spectrometer (Agilent). Spectra were processed in MestreNova (Mestrelab Research) and data analysis was performed with OriginPro (OriginLab) . Experiments with the Langerin ECD were perf ormed at a receptor concentration of 50 μM in 25 mM Tris with 10% D 2O, 150 mM NaCl and 5 mM CaCl 2 […]
(§8) at pH 7.8 and 25°C. […]
CaCl2 at pH 7.0 and 25°C. TFA served as an internal reference at a concentration of 50 μM. Apparent transverse relaxation rates R 2,obs for the reporter ligand were determined using the CPMG pulse sequence as previously published. 6,30,31 […]
KI determination. KI values were determined as previously published for Langerin.6 Briefly, titration experiments were conducted at a concentration of 0.1 mM of reporter ligand 49 at five competitor concentrations [I]T (Table S5). […]

[4] = target: T3, Langerin CRD (Homo sapiens, UniProt Q9UJ71); design: method as in earlier work; conditions: previously published values; ref 6 (SI); cited from earlier work
T3 construct: Langerin carbohydrate recognition domains (CRDs) were expressed insolubly in; made in house; host or cells: E. coli BL21* (DE3)

[5] = target: T2, Langerin ECD; test: 19F R2-filtered NMR screening of the mannoside library (reporter displacement, single competitor concentration); format: binding
Method: as §5, §6, §7, §8
CaCl2 at pH 7.0 and 25°C. TFA served as an internal reference at a concentration of 50 μM. Apparent transverse relaxation rates R 2,obs for the reporter ligand were determined using the CPMG pulse sequence as previously published. 6,30,31 Screening of mannoside library . Estimated affinities KI,est were determined in competitive binding experiments at 0.1 mM of reporter ligand 49 at 0.1 mM using the Langerin ECD at a single competitor concentration as previously described.6 Here, receptor concentrations [P]T values were directly calculated from R2,max, the data point at 0.1 mM 49 in absence of competitor. Subsequently, KI values were estimated in a one parameter fit. The screening was conducted in presence of 0% to 10% DMSO at mannoside concentrations between 0.1 and 10 mM. […]

[6] = target: T3, Langerin CRD; test: 15N HSQC NMR titration, KD determination; format: binding; conditions: 10% DMSO
Method: ppm. The acquisition time tacq was set to 2.0 s and the DPFGSE pulse sequence was utilized for solvent suppression.33 Receptor resonances were suppressed using a T1,rho filter at a relaxation time τ of 35 ms.
Epitope mapping. The binding epitope for 43 was determined at a concentration of 500 µM. For each spectrum 512 scans were recorded. The relaxation delay d 1 was set to 6 s and spectra were recorded at 5 different saturation time s tsat varying from 0.25 to 6.00 s. Equation 1 served to derive the STD effect STD for each analyzed resonance from the corresponding on - and off-resonance spectra.34 I0 represents the integral of a resonance in the off-resonance spectrum and Isat represents the integral of a resonance in the on-resonance spectrum.
The apparent saturation rate k sat and the maximal STD effect STDmax were derived from Equation 2 in a two-parameter fit.35 Standard errors were derived directly from the fitting procedures. These parameters were used to calculate the initial slope of the STD build-up curves STD’0 via Equation 3. STD’0 values were normalized and mapped on the corresponding ligand structure. Only resonances for which at least part of a multiplet was isolated were considered for the epitope mapping.
STD = STDmax(1 − eksattsat)
General remarks. 15N HSQC NMR experiments were conducted on an Ascend 700 MHz spectrometer (Bruker).36 Spectra were processed in NMRPipe.37 Data analysis was performed using CCPN Analysis, MatLab (MathWorks) and OriginPro.38 […]
KD determination. KD values were determined in titration experiments at six ligand concentrations [L]T. Samples were prepared via serial dilution. Chemical shift perturbations CSPs for Langerin CRD resonances in the fast or fast-to-intermediate exchange regime observed upon titration with ligand were calculated as previously described via Equation 4.40
A standard deviation σ of 0.02 ppm was previously determined for the measurement of chemical shifts in 15N HSQC NMR experiments with the Langerin CRD. […]

[7] = test system: murine Dectin-1-expressing Raji cells; test: Liposome binding assay, flow cytometry; format: cell-based
Method: as §1, §2, §3, §4
(§9) Flow cytometry data was processed using FlowJo (BD Bioscience). Mean fluorescence

[8] = test system: Langerin+ Raji cells; test: Liposome binding assay, flow cytometry; format: cell-based
Method: as §1, §2, §3, §4, §9

[9] = test system: murine Langerin-expressing Raji cells; test: Liposome binding assay, flow cytometry; format: cell-based
Method: as §1, §2, §3, §4, §9

[10] = calculated utilizing the KI value determined for 45
[11] = calculated utilizing the KI value determined for 46

T2 sequence (Q9UJ71 65-328 limits assumed): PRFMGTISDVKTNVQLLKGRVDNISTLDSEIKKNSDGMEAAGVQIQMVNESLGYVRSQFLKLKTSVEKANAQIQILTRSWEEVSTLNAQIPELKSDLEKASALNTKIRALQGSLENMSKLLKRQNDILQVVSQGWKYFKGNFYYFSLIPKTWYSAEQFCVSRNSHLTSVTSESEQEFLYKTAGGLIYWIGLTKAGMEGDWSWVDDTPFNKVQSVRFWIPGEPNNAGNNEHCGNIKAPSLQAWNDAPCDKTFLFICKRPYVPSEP
T3 sequence (Q9UJ71 202-320 limits assumed): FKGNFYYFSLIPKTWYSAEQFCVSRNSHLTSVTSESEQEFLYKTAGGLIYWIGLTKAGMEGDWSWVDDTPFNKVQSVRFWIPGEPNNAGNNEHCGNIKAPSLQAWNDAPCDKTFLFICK

Structure (SMILES): C[C@H](O)[C@@H](O)[C@@H](O)[C@H](O)C=O [Fuc, fucose, reference compound]
effect of soluble compound on binding of 48 liposomes ([1]; soluble Fuc, liposomes with 1.26 mol % 48, p > 0.05, n = 4): did not increase

Structure (SMILES): OC[C@H]1OC(O)[C@@H](O)[C@@H](O)[C@@H]1O (stereo partly shown) [Man, mannose, reference compound]
Ki [2]: 2400 ± 800 µM
Relative potency [3, 10]: 2.2
Kd [4]: 5800 ± 300 µM

Structure (SMILES): NCCS(=O)(=O)NC[C@H]1O[C@H](Oc2ccc(-c3ccc(C(=O)O)cc3)cc2C(F)(F)F)[C@@H](O)[C@@H](O)[C@@H]1O [compound 42]
binding of homomultivalent liposomes decorated with 2 mol% 42 [7]: negligible
binding of homomultivalent liposomes decorated with 2 mol% 42 [8]: negligible
binding of homomultivalent liposomes decorated with 2 mol% 42 [9]: negligible
binding of homomultivalent liposomes decorated with 2 mol% 42 ([1]; 2 mol%, formulations not long-term stable, unspecific binding): binding preference towards DC-SIGN

Structure (SMILES): CC(=O)NCCO[C@H]1O[C@H](CO)[C@@H](O)[C@H](O)[C@@H]1O [compound 45, reference compound]
Relative potency [3, 10]: 1.0

Continued, values first:

potency estimated from few doses ([5]; estimated at a single competitor concentration, 0.1 mM reporter ligand 49, 0% to 10% DMSO, read-out: KI,est): 200 µM
affinity increase over reference molecule 1 ([5]; from KI,est): 45 fold
Relative potency [3, 10]: 44
Relative potency [3, 11]: 57
Ki [3]: 230 ± 30 µM
Kd [6]: 500 ± 200 µM
Structure (SMILES): O=C(O)c1ccc(-c2ccc(O[C@H]3O[C@H](CO)[C@@H](O)[C@H](O)[C@@H]3O)c(C(F)(F)F)c2)cc1 [compound 9]

Relative potency [3, 10]: 40
Ki [3]: 250 ± 70 µM
affinity increase over Man reference 45 ([3]; from KI): 40 fold
Kd [6]: 460 ± 90 µM
Structure (SMILES): CC(=O)NCCS(=O)(=O)NC[C@H]1O[C@H](Oc2ccc(-c3ccc(C(=O)O)cc3)cc2C(F)(F)F)[C@@H](O)[C@@H](O)[C@@H]1O [compound 43]

Relative potency [3, 11]: 1.0
Ki [3]: 13000 ± 3000 µM
Kd [6]: 7000 ± 2000 µM
Structure (SMILES): COC1OC(CO)C(O)C(O)C1O (stereo not shown) [compound 46, reference compound]
